Results taken from paper PMC10899196, “Protective effect of microbisporicin (NAI-107) against vancomycin resistant Enterococcus faecium infection in a Galleria mellonella model” (Scientific Reports, 2024).
Converted amounts (≈) assume the structure as drawn. Like-named read-outs stand apart in the source and are kept apart here. Ends that are not written are not given here.

How the values were obtained:
[1] = system: van-B type E. faecium (ID 553); test: microbe, parasite or virus in culture; format: cell-based, Enterococcus faecium
Description: Sixty-six bacteriocins from Syngulon PARAGEN collection and NAI-107 from Naicons, SRL were screened using the resazurin microtiter assay (REMA)[30],[31]. The MIC for the antimicrobials listed in Table 1 were determined according to the clinical and laboratory standard institute (CLSI) guidelines and the European Committee on Antimicrobial Susceptibility Testing (EUCAST) broth microdilution reference method for MIC determination in E. faecium[32],[33].

[2] = cited from earlier work
Text: This characteristic implies that NAI-107 would require parenteral administration in multiple doses per day for therapeutic use.

[3] = system: vanB-type E. faecium (ID 553); test: Galleria mellonella E. faecium infection model, in vivo efficacy
Description: G. mellonella larvae were treated with a range of doses of vanB-type E. faecium (ID 553) (1 × 10^6–1 × 10^9 CFU/mL) and observed for death alongside phosphate buffer saline (PBS) controls.
Injection of G. mellonella was carried out as described in Dijokaite et al.[21]. The last larval stage of G. mellonella (Terramania, Arnhem, NL) were used for the experiments. Only non-discoloured, healthy larvae were selected. The larvae were injected in the last left proleg using 0.3 mL U-100 insulin syringes (BD Micro-Fine).
Each test group consisted of two groups of 10 larvae per concentration of each bacteriocin or linezolid (10 µg/mL). 30 µl of PBS containing 2.7 × 10^7 CFU E. faecium was used to infect the G. mellonella larva. The larvae were treated with various concentrations of bacteriocins. One positive and two negative control groups were used. The positive control group received only the E. faecium inoculum in PBS. Out of the two negative control groups, one group underwent no manipulation, while the other group was injected with PBS only. Each antimicrobial agent was tested in a single experiment using larvae from the same batch and tested at the same time under identical conditions. Each group were incubated in sterile Petri dishes at 37 °C with a 5% (v/v) CO2 atmosphere for the length of the experiments.
Data were analyzed using GraphPad Prism v9. Survival plots were created using Kaplan–Meier survival curves. Statistical analysis was carried out using the Mantel-Cox test to compare survival curves between the PBS controls and each treatment arm. A P value of < 0.05 was considered statistically significant.

[4] = system: methicillin-resistant Staphylococcus aureus; details: cited from earlier work
Text: (§1) There are a number of study limitations. […] This hypothesis was motivated by the growing problem of VRE infections. We acknowledge the limitations of this hypothesis. […] This would be of clinica ...

G. mellonella = G. mellonella model; cited from earlier work
Text: as §1

vanA E. faecium 569 = details: administered intravenously to neutropenic mice; cited from earlier work
Text: (§2) Bacteriocins have gained considerable attention as potential alternatives to traditional antibiotics due to their narrow-spectrum activity and a lower likelihood of inducing resistance[11],[12]. Most leaderless bacteriocins such as Lacticin Q (53 aa), Lacticin Z (53 aa), and Garvicin KS have proven to have inhibitory effects against a range of genera such as Listeria, Staphylococcus and ...

vanA E. faecalis A533 = details: administered intravenously to neutropenic mice; cited from earlier work
Text: as §2

[5] = Enterococcus faecium, micro broth dilution method, van-B type E. faecium (ID 553), read-out: MIC
[6] = mouse, single subcutaneous dosing of 5, 20 and 80 mg/kg
[7] = micro broth dilution method, van-B type E. faecium (ID 553)
[8] = micro broth dilution method, van-B type E. faecium (ID 553), molar value from deduced molecular weight

CC(=O)NC[C@H]1CN(c2ccc(N3CCOCC3)c(F)c2)C(=O)O1 [Linezolid, reference compound]
MIC [1, 5]: 2 µg/mL (≈ 5.93 µM)

CN[C@H](CC(C)C)C(=O)N[C@H]1C(=O)N[C@@H](CC(N)=O)C(=O)N[C@H]2C(=O)N[C@H]3C(=O)N[C@H](C(=O)N[C@H](C(=O)O)c4cc(O)cc(O)c4-c4cc3ccc4O)[C@H](O)c3ccc(c(Cl)c3)Oc3cc2cc(c3O[C@@H]2O[C@H](CO)[C@@H](O)[C@H](O)[C@H]2O[C@H]2C[C@](C)(N)[C@H](O)[C@H](C)O2)Oc2ccc(cc2Cl)[C@H]1O [Vancomycin]
MIC ([1]; Enterococcus faecium): 64 µg/mL (≈ 44.2 µM)

CN(C)[C@@H]1C(O)=C(C(N)=O)C(=O)[C@@]2(O)C(O)=C3C(=O)c4c(O)cccc4[C@@](C)(O)[C@H]3C[C@@H]12 [Tetracycline, reference compound]
MIC [1, 5]: 0.25 µg/mL (≈ 0.563 µM)

CC[C@H]1OC(=O)[C@H](C)[C@@H](O[C@H]2C[C@@](C)(OC)[C@@H](O)[C@H](C)O2)[C@H](C)[C@@H](O[C@@H]2O[C@H](C)C[C@H](N(C)C)[C@H]2O)[C@](C)(O)C[C@@H](C)C(=O)[C@H](C)[C@@H](O)[C@]1(C)O [Erythromycin, reference compound]
MIC [1, 5]: ≥ 8 µg/mL

Microbisporicin
bioavailability ([2]; after intramuscular, intravenous and subcutaneous administration): good bioavailability | AUC [2, 6]: 27000 to 276000 ng·h/mL | Cmax [2, 6]: 4000 to 22000 ng/mL | elimination half-lives [2, 6]: 4.2 to 8.2 h | oral absorption ([2]; oral): not absorbed orally | mortality compared with the linezolid (10 µg/mL) treated group ([3]; 16 µg/mL group, 120 h): significantly lower | dose groups with the lowest mortality ([3]; doses tested 2, 4, 8 and 16 µg/mL, 120 h): 8 µg/mL and 16 µg/mL | in vivo efficacy (survival of infected larvae) ([3]; larvae infected with 2.7 × 10^7 CFU E. faecium in 30 µl PBS, 20 larvae per group, 2-16 µg/mL, 120 h at 37 °C): effective in vivo at all doses tested | efficacy against methicillin-resistant Staphylococcus aureus in rat model [4]: efficacious | toxicity in rat model [4]: non-toxic | concentration up to which no toxicity was exhibited (G. mellonella): ≥ 64000 ng/mL | MIC [1, 7]: 4 µg/mL | MIC [1, 8]: 0.00178 µM/L | in vivo efficacy (vanA E. faecium 569): effective | in vivo efficacy (vanA E. faecalis A533): effective

Teicoplanin [reference compound]
MIC [1, 7]: 0.5 µg/mL

CC1(C)S[C@@H]2[C@H](NC(=O)[C@H](N)c3ccccc3)C(=O)N2[C@H]1C(=O)O [Ampicillin, reference compound]
MIC [1, 5]: ≥ 32 µg/mL

MSWLNFLKYIAKYGKKAVSAAWKYKGKVLEWLNVGPTLEWVWQKLKKIAGL [Aureocin A53]
MIC [1, 7]: 1.56 µg/mL | MIC [1, 8]: 0.2609 µM/L

CNC(C)C1CCC(N)C(OC2C(N)CC(N)C(OC3OCC(C)(O)C(NC)C3O)C2O)O1 (stereo not drawn) [Gentamicin, reference compound]
MIC [1, 5]: ≥ 32 µg/mL
